Assay results: US10906890B2, “Triazole phenyl compounds as agonists of the APJ receptor” (AMGEN INC., priority 2016, dated 2021)

Target: human APJ receptor (Homo sapiens (Human), UniProt P35414)
Assay: [35S]GTPγS binding assay on membranes from CHO cells stably expressing human APJ receptor
Format: biochemical
Conditions: means of several independent experiments, read-out: Activity hAPJ SPA EC50 IP
Description: The human APJ receptor was cloned by polymerase chain reaction and the gene encoding the receptor was subcloned in pFLAG-CMV™-3 expression vector (Sigma, Saint Louis, Mo. USA) in-house at Amgen. A GTPγS binding assay was performed on membranes prepared from CHO cells stably expressing human APJ receptor. The optimum experimental conditions for the concentrations of GDP, MgCl2, and NaCl in the assay buffer were initially determined. […] Incubation was at RT for 90 min and the microplate was read using a ViewLux™ ultra HTS Microplate Imager (PerkinElmer, Inc.). All the results presented are means of several independent experiments and analyzed by non-linear regression methods using the commercially available program Prism (GraphPad, San Diego, Calif.) providing the EC50 values detailed in Table 28.

Sequence of human APJ receptor (P35414 whole entry): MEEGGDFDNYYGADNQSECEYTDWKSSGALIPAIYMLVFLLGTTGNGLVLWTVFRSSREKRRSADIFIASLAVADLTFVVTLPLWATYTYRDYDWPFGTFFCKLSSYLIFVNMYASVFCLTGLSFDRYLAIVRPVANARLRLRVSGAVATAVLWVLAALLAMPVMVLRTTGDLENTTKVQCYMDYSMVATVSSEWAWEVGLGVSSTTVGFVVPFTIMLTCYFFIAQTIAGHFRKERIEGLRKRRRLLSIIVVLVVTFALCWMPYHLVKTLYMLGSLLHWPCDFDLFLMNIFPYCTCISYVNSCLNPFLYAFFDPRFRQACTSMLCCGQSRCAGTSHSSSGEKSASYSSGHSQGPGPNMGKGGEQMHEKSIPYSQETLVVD

| Compound | EC50 |
| --- | --- |
| COc1ccnc(OC)c1-n1c(NS(=O)(=O)[C@@H](C)[C@H](C)c2cnc(C)cn2)nnc1-c1ccccc1 (single isomer, unassigned) [Example 54.0, (2S,3R,P)-N-(4-(2,4-dimethoxy-3-pyridinyl)-5-phenyl-4H-1,2,4-triazol-3-yl)-3-(5-methyl-2-pyrazinyl)-2-butanesulfonamide or (2S,3R,M)-N-(4-(2,4-dimethoxy-3-pyridinyl)-5-phenyl-4H-1,2,4-triazol-3-yl)-3-(5-methyl-2-pyrazinyl)-2-butanesulfonamide] | 14 nM |
| COc1ccnc(OC)c1-n1c(NS(=O)(=O)[C@@H](C)[C@H](C)c2cnc(C)cn2)nnc1-c1ccccc1 (single isomer, unassigned) [Example 55.0, (2S,3R,P)-N-(4-(2,4-dimethoxy-3-pyridinyl)-5-phenyl-4H-1,2,4-triazol-3-yl)-3-(5-methyl-2-pyrazinyl)-2-butanesulfonamide or (2S,3R,M)-N-(4-(2,4-dimethoxy-3-pyridinyl)-5-phenyl-4H-1,2,4-triazol-3-yl)-3-(5-methyl-2-pyrazinyl)-2-butanesulfonamide] | 0.33 nM |
| COc1cccc(OC)c1-n1c(NS(=O)(=O)[C@H]2C[C@@H](O)CN(c3ncc(F)cn3)C2)nnc1-c1ccccc1 (single isomer, unassigned) [Example 56.0, (3R,5S)-N-(4-(2,6-dimethoxyphenyl)-5-phenyl-4H-1,2,4-triazol-3-yl)-1-(5-fluoro-2-pyrimidinyl)-5-hydroxy-3-piperidinesulfonamide or (3S,5R)-N-(4-(2,6-dimethoxyphenyl)-5-phenyl-4H-1,2,4-triazol-3-yl)-1-(5-fluoro-2-pyrimidinyl)-5-hydroxy-3-piperidinesulfonamide] | 30 nM |
| COc1cccc(OC)c1-n1c(NS(=O)(=O)[C@H]2C[C@@H](O)CN(c3ncc(F)cn3)C2)nnc1-c1ccccc1 (single isomer, unassigned) [Example 57.0, (3R,5S)-N-(4-(2,6-dimethoxyphenyl)-5-phenyl-4H-1,2,4-triazol-3-yl)-1-(5-fluoro-2-pyrimidinyl)-5-hydroxy-3-piperidinesulfonamide or (3S,5R)-N-(4-(2,6-dimethoxyphenyl)-5-phenyl-4H-1,2,4-triazol-3-yl)-1-(5-fluoro-2-pyrimidinyl)-5-hydroxy-3-piperidinesulfonamide] | 1.4 nM |
| COc1cccc(OC)c1-n1c(NS(=O)(=O)[C@H]2C[C@@H](OC(C)C)CN(c3ncc(F)cn3)C2)nnc1-c1ccccc1 (single isomer, unassigned) [Example 58.0, (3R,5S)-N-(4-(2,6-dimethoxyphenyl)-5-phenyl-4H-1,2,4-triazol-3-yl)-1-(5-fluoro-2-pyrimidinyl)-5-(1-methylethoxy)-3-piperidinesulfonamide or (3S,5R)-N-(4-(2,6-dimethoxyphenyl)-5-phenyl-4H-1,2,4-triazol-3-yl)-1-(5-fluoro-2-pyrimidinyl)-5-(1-methylethoxy)-3-piperidinesulfonamide] | 0.94 nM |
| COc1cccc(OC)c1-n1c(NS(=O)(=O)[C@H]2C[C@@H](OC(C)C)CN(c3ncc(F)cn3)C2)nnc1-c1ccccc1 (single isomer, unassigned) [Example 59.0, (3R,5S)-N-(4-(2,6-dimethoxyphenyl)-5-phenyl-4H-1,2,4-triazol-3-yl)-1-(5-fluoro-2-pyrimidinyl)-5-(1-methylethoxy)-3-piperidinesulfonamide or (3S,5R)-N-(4-(2,6-dimethoxyphenyl)-5-phenyl-4H-1,2,4-triazol-3-yl)-1-(5-fluoro-2-pyrimidinyl)-5-(1-methylethoxy)-3-piperidinesulfonamide] | 86 nM |
| COc1ncnc(OC)c1-n1c(NS(=O)(=O)[C@H]2C[C@@H](OC(C)C)CN(c3ncc(F)cn3)C2)nnc1-c1ccccc1 (single isomer, unassigned) [Example 64.0, (3R,5S)-N-(4-(4,6-dimethoxy-5-pyrimidinyl)-5-phenyl-4H-1,2,4-triazol-3-yl)-1-(5-fluoro-2-pyrimidinyl)-5-(1-methylethoxy)-3-piperidinesulfonamide or (3S,5R)-N-(4-(4,6-dimethoxy-5-pyrimidinyl)-5-phenyl-4H-1,2,4-triazol-3-yl)-1-(5-fluoro-2-pyrimidinyl)-5-(1-methylethoxy)-3-piperidinesulfonamide] | 4.7 nM |
| COc1ncnc(OC)c1-n1c(NS(=O)(=O)[C@@H](C)[C@H](OC)c2ncc(C)cn2)nnc1-c1cccc(Br)c1 [Example 1.0, (1R,2S)—N-(5-(3-Bromophenyl)-4-(4,6-dimethoxypyrimidin-5-yl)-4H-1,2,4-triazol-3-yl)-1-methoxy-1-(5-methylpyrimidin-2-yl)propane-2-sulfonamide] | 4.2 nM |
| COc1ncnc(OC)c1-n1c(NS(=O)(=O)[C@@H](C)[C@H](OC)c2ncc(C)cn2)nnc1-c1cccc(C#N)c1 [Example 2.0, (1R,2S)-N-(5-(3-cyanophenyl)-4-(4,6-dimethoxypyrimidin-5-yl)-4H-1,2,4-triazol-3-yl)-1-methoxy-1-(5-methylpyrimidin-2-yl)propane-2-sulfonamide] | 110 nM |
| COc1ncnc(OC)c1-n1c(NS(=O)(=O)[C@@H](C)[C@H](OC)c2ncc(C)cn2)nnc1-c1cccc(Cl)c1 [Example 3.0, (1R,25)-N-(5-(3-chlorophenyl)-4-(4,6-dimethoxypyrimidin-5-yl)-4H-1,2,4-triazol-3-yl)-1-methoxy-1-(5-methylpyrimidin-2-yl)propane-2-sulfonamide] | 5.3 nM |
| COc1ncnc(OC)c1-n1c(NS(=O)(=O)[C@@H](C)[C@H](OC)c2ncc(C)cn2)nnc1-c1ccccc1 [Example 4.0, (1R,2S)-N-(4-(4,6-dimethoxypyrimidin-5-yl)-5-phenyl-4H-1,2,4-triazol-3-yl)-1-methoxy-1-(5-methylpyrimidin-2-yl)propane-2-sulfonamide] | 2.9 nM |
| COc1ncnc(OC)c1-n1c(NS(=O)(=O)[C@@H](C)[C@H](C)c2ncc(C)cn2)nnc1-c1ccccc1 [Example 5.0, (2S,3R)-N-(4-(4,6-dimethoxy-5-pyrimidinyl)-5-phenyl-4H-1,2,4-triazol-3-yl)-3-(5-methyl-2-pyrimidinyl)-2-butanesulfonamide] | 2.3 nM |
| COc1cccc(-c2nnc(NS(=O)(=O)[C@@H](C)[C@H](OC)c3ncc(C)cn3)n2-c2c(OC)ncnc2OC)c1 [Example 6.0, (1R,2S)-N-(4-(4,6-dimethoxy-5-pyrimidinyl)-5-(3-methoxyphenyl)-4H-1,2,4-triazol-3-yl)-1-methoxy-1-(5-methyl-2-pyrimidinyl)-2-propanesulfonamide] | 6.8 nM |
| COc1ncnc(OC)c1-n1c(NS(=O)(=O)CCc2ccc(F)cc2C#N)nnc1-c1ccccc1 [Example 10.0, 2-(2-cyano-4-fluorophenyl)-N-(4-(4,6-dimethoxy-5-pyrimidinyl)-5-phenyl-4H-1,2,4-triazol-3-yl)ethanesulfonamide] | 42 nM |
| COc1cccc(OC)c1-n1c(NS(=O)(=O)CCc2ccc(F)cc2C#N)nnc1-c1ccccc1 [Example 12.0, 2-(2-cyano-4-fluorophenyl)-N-(4-(2,6-dimethoxyphenyl)-5-phenyl-4H-1,2,4-triazol-3-yl)ethanesulfonamide] | 8.5 nM |
| COc1cccc(OC)c1-n1c(NS(=O)(=O)[C@@H](C)[C@@H](OC(C)C)c2ncc(C)cn2)nnc1-c1ccccc1 [Example 13.0, (1S,2S)-N-(4-(2,6-dimethoxyphenyl)-5-phenyl-4H-1,2,4-triazol-3-yl)-1-(1-methylethoxy)-1-(5-methyl-2-pyrimidinyl)-2-propanesulfonamide] | 0.22 nM |
| COc1ncnc(OC)c1-n1c(NS(=O)(=O)[C@@H](C)[C@@H](OC(C)C)c2ncc(C)cn2)nnc1-c1ccccc1 [Example 14.0, (1S,2S)-N-(4-(4,6-dimethoxy-5-pyrimidinyl)-5-phenyl-4H-1,2,4-triazol-3-yl)-1-(1-methylethoxy)-1-(5-methyl-2-pyrimidinyl)-2-propanesulfonamide] | 0.55 nM |
| COc1cccc(OC)c1-n1c(NS(=O)(=O)[C@@H](C)[C@H](C)c2ncc(C)cn2)nnc1-c1ccccc1 [Example 15.0, (2S,3R)-N-(4-(2,6-dimethoxyphenyl)-5-phenyl-4H-1,2,4-triazol-3-yl)-3-(5-methyl-2-pyrimidinyl)-2-butanesulfonamide] | 0.89 nM |
| COc1cccc(OC)c1-n1c(NS(=O)(=O)[C@@H](C)[C@H](C)c2ncc(Cl)cn2)nnc1-c1ccccc1 [Example 16.0, (2S,3R)-3-(5-chloro-2-pyrimidinyl)-N-(4-(2,6-dimethoxyphenyl)-5-phenyl-4H-1,2,4-triazol-3-yl)-2-butanesulfonamide] | 0.2 nM |
| COc1ncnc(OC)c1-n1c(NS(=O)(=O)[C@@H](C)[C@H](C)c2ncc(Cl)cn2)nnc1-c1ccccc1 [Example 17.0, (2S,3R)-3-(5-chloro-2-pyrimidinyl)-N-(4-(4,6-dimethoxy-5-pyrimidinyl)-5-phenyl-4H-1,2,4-triazol-3-yl)-2-butanesulfonamide] | 0.89 nM |
| COc1cccc(OC)c1-n1c(NS(=O)(=O)[C@@H](C)[C@H](O)c2ncc(C)cn2)nnc1-c1ccccc1 [Example 18.0, (1R,2S)-N-(4-(2,6-dimethoxyphenyl)-5-phenyl-4H-1,2,4-triazol-3-yl)-1-hydroxy-1-(5-methyl-2-pyrimidinyl)-2-propanesulfonamide] | 0.81 nM |
| COc1ncnc(OC)c1-n1c(NS(=O)(=O)CCc2ccc(Cl)cc2)nnc1-c1ccccc1 [Example 19.0, 2-(4-chlorophenyl)-N-(4-(4,6-dimethoxy-5-pyrimidinyl)-5-phenyl-4H-1,2,4-triazol-3-yl)ethanesulfonamide] | 40 nM |
| COc1ncnc(OC)c1-n1c(NS(=O)(=O)[C@@H](C)[C@H](O)c2ncc(C)cn2)nnc1-c1ccccc1 [Example 20.0, (1R,2S)-N-(4-(4,6-dimethoxy-5-pyrimidinyl)-5-phenyl-4H-1,2,4-triazol-3-yl)-1-hydroxy-1-(5-methyl-2-pyrimidinyl)-2-propanesulfonamide] | 5.3 nM |
